In patent US9999609B2, “Methods for treating or preventing fatigue” (SK Biopharmaceuticals Co., Ltd., priority 2009, dated 2018):

Key:
Type in all cases: in vivo
[1] = tested on: adult human subjects with moderate or severe major depression without psychotic features; assay: Randomized double-blind placebo- and active-controlled 6-week study in major depression; details: for ABCD questionnaire items (of 51) with statistically significant superiority to placebo: post hoc analyses
Text: This was a randomized, double-blind, parallel-group, active, and placebo-controlled, multicenter study conducted in the U.S. (23 centers) and Canada (4 centers). There were 2 phases: a pretreatment phase (screening/washout and a baseline visit) and a 6-week, double-blind treatment phase. Paroxetine, a positive control, was included to evaluate assay sensitivity. After washout (if needed) of prohibited substances, subjects were randomly assigned (1:1:1:1) to receive the test compound titrated to a target dose of 200 mg/day or 400 mg/day, matching placebo, or a fixed dose (20 mg/day) of paroxetine. Study drug was given twice daily for 6 weeks. Efficacy and safety were assessed weekly during the double-blind phase. Subjects completing the study underwent an Exit Interview (“Your Health and Well-Being”) and completed an Assessment of Benefits of Clinical-trial Drug-treatment (ABCD) questionnaire (U.S. sites only).

[2] = tested on: C57BL/6J, AKR/J and DBA/2J mice; assay: Sleep onset and vigilance states in three inbred mouse strains after IP injection
Protocol: At least 7 adult male mice of inbred strains C57BL/6J, AKR/J, and DBA/2J were recorded in 2 sessions of 72 continuous hours. The first 24 h in each session are considered as baseline followed the next day by the saline injection and the next day by 150 mg/kg of the test compound in the first session and 5 mg/kg d-amphetamine in the second session. The two sessions were separated by 7 days (wash-out period) and all injections were intraperitoneal (IP) and performed at light onset (9 am) in a volume of 5 ml/kg.

[3] = tested on: hypocretin cell ablated narcoleptic mice (prepororexin/ataxin-3 transgenic) and their littermate wild-type mice; assay: Sleep parameters (EEG/EMG polygraph) in narcoleptic and wild-type mice after oral dosing; details: for duration of continuous wakefulness: resting period (ZT 2), most wild-type and narcoleptic mice
Text: The polygraph signal (EEG and EMG) was captured with SleepSign (Kissei Comtech), and the sleep stage was visually scored with 10 sec epoch for wakefulness, non-REM sleep and REM sleep. Scoring criteria are: Wakefulness is characterized by desynchronized low-amplitude, mixed frequency (>4 Hz) EEG and high EMG activity. Rhythmic alpha (8-9 Hz) wave (with high EMG activities) may also appear. Non-REM is characterized by synchronized, high-amplitude, low-frequency (0.25-4 Hz) with reduced EMG activity (compared to wakefulness). EEG activity in REM sleep is similar to that in wakefulness, with desynchronized, mixed frequency low amplitude waves. Rhythmic alpha (8-9 Hz) wave with reduced EMG activities may also appear. […] is reduced even further and in many cases, completely absent. Same muscle twitching may be apparent in the EMG trace during REM sleep.
Three drug doses of the test compound (50, 100 and 150 mg/kg PO) plus vehicle, were orally administered at ZT 2 (2 hours after light on) or ZT14 (2 hours after light off), and the effects on sleep were monitored for 6 hours after the drug administration (the sleep data was collected for 30 hours after the drug injection, and are available for further analysis). The doses for modafinil were 50 and 200 mg/kg PO (plus vehicle), and modafinil was also administered at ZT 2 and […]
If the polygraph signals of some mice were not sufficient to score the sleep stage with accuracy (especially bad EMG), data from these animals were excluded, and the minimum of 5 animals (except for the highest dose of the test compound in wild-type mice in dark period, n=4) were included for the data analysis and number of animals were indicated in the figures.
Effects of test compound and modafinil on the amount of wake, non-REM sleep, REM sleep (cumulative seconds), number of episodes for each sleep stage during 6 hours, and mean wake/sleep-bout lengths (seconds) were analyzed in each animal and the mean of each parameter was calculated in each genotype. The effects of compounds on wake and sleep amounts are useful to evaluate the wake promoting potency, and the number of episodes for each sloop stage and the mean wake/sleep bout length are parameters for evaluating the sleep fragmentation. Amphetamine and modafinil, two main wake-promoting compounds currently used for the treatment of EDS associated with various etiologies (narcolepsy, idiopathic hypersomnia and secondary EDS), are known to increase wake time and prolong wake bout length in normal and EDS conditions.
A comparison of the effects between hypocretin deficient and wild-type mice is very useful in determining the wake-promotion of the test compound is dependent on the availability of hypocretins, and if there is a possible change in the sensitivity of the receptive mechanisms of test compound in narcoleptic mice due to the hypocretin ligand deficiency.

[4] = tested on: male adult Sprague Dawley rats; assay: Sleep-wake organization (EEG/EOG/EMG) in rats after acute i.p. administration; details: for Duration Active wake / Duration Deep sleep / Duration Intemediate stage / Duration Light sleep / Duration Passive wake / Duration REM sleep / Latency ISWS / Latency REM sleep / Latency dSWS / Shifts: Shift from ISWS to AW / Shifts: Shift from ISWS to PW / Shifts: Shift from REMS to AW / Shifts: Shift from REMS to PW / Shifts: Shift from dSWS to AW / Shifts: Shift from dSWS to PW: rats, mean ± s.e.m of 8 rats; for Duration Active wake / Duration Deep sleep / Duration Intemediate stage / Duration Light sleep / Duration Passive wake / Duration REM sleep: 16 h recording
[5] = 3 mg/kg i.p., 16 hours recording
[6] = 30 mg/kg i.p., 16-h post-injection

For `NC(=O)OC[C@H](N)Cc1ccccc1` [test compound, (R)-(beta-amino-benzenepropyl) carbamate], the “ABCD questionnaire items (of 51) with statistically significant superiority to placebo” value ([1]; 200 mg) was 14 items, the “ABCD questionnaire items (of 51) with statistically significant superiority to placebo” value ([1]; 400 mg) was 8 items and the “secondary efficacy variables of mood and well-being” value ([1]; one or both doses (200 and 400 mg/day), 6 weeks) was “statistically significantly greater efficacy than placebo”. For the same molecule, the “Insomnia, treatment-emergent adverse event incidence” value ([1]; target dose 200 mg/day, 6 weeks) was 24%, the “Insomnia, treatment-emergent adverse event incidence” value ([1]; target dose 400 mg/day, 6 weeks) was 35% and the “genotype effect on wake time referenced to sleep latency after saline” value ([2]; 150 mg/kg IP) was “no genotype effect”. The “duration of induced continuous wakefulness (sleep latency)” value ([2]; 150 mg/kg IP at light onset, three inbred strains) was “up to 4.5 hours”, the “wakefulness duration compared with d-amphetamine 5 mg/kg” value ([2]; 150 mg/kg IP, hourly wakefulness over 72 h recordings) was “significantly longer wakefulness duration than amphetamine” and the “duration of continuous wakefulness” value ([3]; 50 mg/kg PO) was “up to 3 hours”. For the same molecule, the “duration of continuous wakefulness” value ([3]; 100 mg/kg PO) was at most 4 h, the “duration of continuous wakefulness” value ([3]; 150 mg/kg PO) was at most 5 h and the bouts of wakefulness ([3]; 50-150 mg/kg PO, wild-type and narcoleptic mice) was “significantly increased bouts of wakefulness”. The effect on wakefulness ([3]; active (dark) period, ZT14, PO) was “dose-dependently increased wakefulness”, the “wake amounts in narcoleptic mice relative to wild-type mice” value ([3]; active period, 100 and 150 mg/kg PO) was “brought up to the levels of wild-type mice” and the “amounts of non-REM and REM sleep in narcoleptic mice relative to wild-type mice” value ([3]; active period, PO) was “brought down to the levels of wild-type mice”. For the same molecule, the “Non-REM and REM sleep during the period of continuous wakefulness” value ([3]; resting period, 50, 100, 150 mg/kg PO) was “completely suppressed”, the “EEG patterns after administration” value ([3]; resting period, 50-150 mg/kg PO) was “no abnormal EEG patterns” and the “effect on REM sleep” value ([3]; resting period, PO) was “potently reduced REM sleep”. For the same molecule, the wake-promoting effects ([3]; resting period, wild-type and hypocretin-deficient narcoleptic mice, PO) was “Very potent wake-promoting effects”, the “increase in total light sleep vs vehicle” value [4, 5] was “+26%” and the “increased drive to wakefulness from deep sleep vs vehicle” value [4, 5] was “+15%”. The “increased drive to wakefulness from light sleep vs vehicle” value [4, 5] was “+46%”, the “increase in shifts from REM sleep towards active wakefulness vs vehicle” value ([4]; 10 mg/kg i.p.) was “+16%” and the “increase in total duration of light sleep vs vehicle” value ([4]; 10 mg/kg i.p.) was “+24%”. For the same molecule, the “change in number of epochs of REM sleep” value ([4]; 30 mg/kg i.p.) was −24%, the “change in number of epochs of active wakefulness” value ([4]; 30 mg/kg i.p.) was “+19%” and the “change in number of epochs of light sleep” value ([4]; 30 mg/kg i.p.) was −23%. For the same molecule, the “change in number of epochs of passive wakefulness” value ([4]; 30 mg/kg i.p.) was −30%, the “mean durations of sleep wake states” value ([4]; 30 mg/kg i.p.) was “not modified” and the “onset of activity after administration” value ([4]; 30 mg/kg i.p.) was about 30 min. The “change of total time spent in REM sleep vs vehicle” value [4, 6] was −25%, the “change of total time spent in active wakefulness vs vehicle” value [4, 6] was “+19%” and the “change of total time spent in light sleep vs vehicle” value [4, 6] was −20%. The “change of total time spent in passive wakefulness vs vehicle” value [4, 6] was −29%, the “overall profile of effects” value ([4]; 30 mg/kg i.p., beginning of the administration) was “psychostimulant-like properties” and the “duration of rebound increase in deep sleep” value ([4]; 30 mg/kg i.p., starting 3 hours after administration) was “about 7 hours”. The “duration of central activity after injection” value ([4]; i.p.) was “at least 4 hours”, the “time of peak in effect post administration” value ([4]; i.p.) was “around 2 hours” and the “Duration Active wake” value ([4]; 3 mg/kg i.p.) was 290.0 ± 11.2 min. The “Duration Deep sleep” value ([4]; 3 mg/kg i.p.) was 125.0 ± 24.6 min, the “Duration Intemediate stage” value ([4]; 3 mg/kg i.p.) was 2.9 ± 0.7 min and the “Duration Light sleep” value ([4]; 3 mg/kg i.p.) was 374.7 ± 16.6 min. For the same molecule, the “Duration Passive wake” value ([4]; 3 mg/kg i.p.) was 79.5 ± 10.7 min, the “Duration REM sleep” value ([4]; 3 mg/kg i.p.) was 84.0 ± 5.4 min and the “Latency ISWS” value ([4]; 3 mg/kg i.p.) was 15.6 ± 4.1 min. For the same molecule, the “Latency REM sleep” value ([4]; 3 mg/kg i.p.) was 66.0 ± 11.8 min, the “Latency dSWS” value ([4]; 3 mg/kg i.p.) was 42.0 ± 8.5 min and the “Shifts: Shift from ISWS to AW” value ([4]; 3 mg/kg i.p.) was 217.8 ± 55.5 number. The “Shifts: Shift from ISWS to PW” value ([4]; 3 mg/kg i.p.) was 78.1 ± 35.8 number, the “Shifts: Shift from REMS to AW” value ([4]; 3 mg/kg i.p.) was 78.0 ± 21.6 number and the “Shifts: Shift from REMS to PW” value ([4]; 3 mg/kg i.p.) was 3.7 ± 3.0 number. For the same molecule, the “Shifts: Shift from dSWS to AW” value ([4]; 3 mg/kg i.p.) was 9.7 ± 6.6 number, the “Shifts: Shift from dSWS to PW” value ([4]; 3 mg/kg i.p.) was 6.6 ± 5.9 number and the “Duration Active wake” value ([4]; 10 mg/kg i.p.) was 305.5 ± 15.1 min. The “Duration Deep sleep” value ([4]; 10 mg/kg i.p.) was 104.0 ± 19.3 min, the “Duration Intemediate stage” value ([4]; 10 mg/kg i.p.) was 5.2 ± 0.7 min and the “Duration Light sleep” value ([4]; 10 mg/kg i.p.) was 366.6 ± 21.2 min. The “Duration Passive wake” value ([4]; 10 mg/kg i.p.) was 73.1 ± 13.2 min, the “Duration REM sleep” value ([4]; 10 mg/kg i.p.) was 102.3 ± 4.6 min and the “Latency ISWS” value ([4]; 10 mg/kg i.p.) was 30.4 ± 7.9 min. For the same molecule, the “Latency REM sleep” value ([4]; 10 mg/kg i.p.) was 87.5 ± 14.5 min, the “Latency dSWS” value ([4]; 10 mg/kg i.p.) was 127.2 ± 67.1 min and the “Shifts: Shift from ISWS to AW” value ([4]; 10 mg/kg i.p.) was 204.5 ± 56.4 number. For the same molecule, the “Shifts: Shift from ISWS to PW” value ([4]; 10 mg/kg i.p.) was 84.4 ± 40.5 number, the “Shifts: Shift from REMS to AW” value ([4]; 10 mg/kg i.p.) was 94.1 ± 24.0 number and the “Shifts: Shift from REMS to PW” value ([4]; 10 mg/kg i.p.) was 8.9 ± 6.7 number. For the same molecule, the “Shifts: Shift from dSWS to AW” value ([4]; 10 mg/kg i.p.) was 4.2 ± 3.1 number, the “Shifts: Shift from dSWS to PW” value ([4]; 10 mg/kg i.p.) was 12.5 ± 8.5 number and the “Duration Active wake” value ([4]; 30 mg/kg i.p.) was 371.6 ± 7.7 min. For the same molecule, the “Duration Deep sleep” value ([4]; 30 mg/kg i.p.) was 214.9 ± 15.6 min, the “Duration Intemediate stage” value ([4]; 30 mg/kg i.p.) was 4.0 ± 1.0 min and the “Duration Light sleep” value ([4]; 30 mg/kg i.p.) was 235.8 ± 14.3 min. The “Duration Passive wake” value ([4]; 30 mg/kg i.p.) was 57.3 ± 4.7 min, the “Duration REM sleep” value ([4]; 30 mg/kg i.p.) was 72.9 ± 7.3 min and the “Latency ISWS” value ([4]; 30 mg/kg i.p.) was 73.6 ± 25.7 min. The “Latency REM sleep” value ([4]; 30 mg/kg i.p.) was 251.8 ± 32.0 min, the “Latency dSWS” value ([4]; 30 mg/kg i.p.) was 174.6 ± 12.3 min and the “Shifts: Shift from ISWS to AW” value ([4]; 30 mg/kg i.p.) was 221.9 ± 58.3 number. For the same molecule, the “Shifts: Shift from ISWS to PW” value ([4]; 30 mg/kg i.p.) was 74.2 ± 29.0 number, the “Shifts: Shift from REMS to AW” value ([4]; 30 mg/kg i.p.) was 65.1 ± 21.8 number and the “Shifts: Shift from REMS to PW” value ([4]; 30 mg/kg i.p.) was 4.1 ± 3.2 number. The “Shifts: Shift from dSWS to AW” value ([4]; 30 mg/kg i.p.) was 8.7 ± 5.3 number and the “Shifts: Shift from dSWS to PW” value ([4]; 30 mg/kg i.p.) was 17.6 ± 12.0 number.
